Experimental data as given in PMC10221314 (Pharmaceuticals, 2023).
Entries after “also recorded” stand apart in the source; their conditions may differ.

Experiments:
[1] = system: HFD mice; set-up: method as in PMID 30635917; settings: 100 mg·Kg^−1; cited from earlier work
[2] = system: FXR downstream genes; assay: mRNA expression of FXR downstream genes in HepG2 cells (qRT-PCR); assay type: cell-based; settings: 50 μM, 24 h
Protocol: (§1) Cells and liver tissue samples were subjected to RNA extraction and purification, followed by reverse transcription of equal amounts of total RNA into […] using a Transcriptor First Strand cDNA Synthesis Kit (Roche). The relative expression levels of the target gene were determined using TaqMan probe/primers with an ABI Q3 quantitative real-time PCR system, while GAPDH/Gapdh was utilized as an internal control for mRNA expression. The fold change in the expression of the target mRNA was calculated using Equation 2^−ΔΔCt.
(A) Relative mRNA level of SHP; (B) Relative mRNA level of BSEP; (C) Relative mRNA level of CYP7A1; (D) Relative mRNA level of SREBP1c; (E) Relative mRNA level of PEPCK; (F) Expression level of G6Pase. HepG2 cells were seeded in a 6-well plate and treated with DMSO and varying concentrations of compound 10b for 24 h with or without 50 μM of 1. The mRNA levels of SHP, BSEP, CYP7A1, SREBP1c, PEPCK, and G6Pase were quantified and normalized to β-actin expression.

[3] = system: FXR downstream genes; settings: previous study; cited from earlier work
[4] = biological target: T1, FXR (Homo sapiens, UniProt Q96RI1); assay: Yeast one-hybrid assay of FXR antagonistic activity in HEK-293T cells; assay type: cell-based; settings: HEK-293T cells; CDCA (50 μM) as agonist; mean ± SE of three independent tests
T1 construct: a fusion plasmid of Gal4 DBD-NR-LBD, which included PPARα, PPARβ, PPARγ, RXRα, RXRβ, RXRγ, LXRα, LXRβ, GPBAR, PXR, and FXR; expressed in transfected cells; host or cells: HEK-293T
T1 sequence (Q96RI1 262-486 limits assumed): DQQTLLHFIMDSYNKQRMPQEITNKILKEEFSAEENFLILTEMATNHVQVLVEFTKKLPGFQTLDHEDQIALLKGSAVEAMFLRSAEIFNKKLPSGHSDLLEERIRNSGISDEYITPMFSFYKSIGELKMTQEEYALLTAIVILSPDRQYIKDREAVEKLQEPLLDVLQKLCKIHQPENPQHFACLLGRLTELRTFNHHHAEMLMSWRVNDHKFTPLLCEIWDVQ
Protocol: Cell counting: HEK-293T cells in logarithmic growth phase were digested with 0.25% trypsin, collected, and centrifuged. The trypsin-containing medium was discarded, and 2 mL of fresh phenol red-free DMEM medium containing 5% fetal bovine serum was added. The cells were then mixed with the medium to prepare a cell suspension and counted on a cell counting plate.
Cell plating: A determined number of cells were taken from the cell suspension, diluted with phenol red-free DMEM medium containing 5% fetal bovine serum, and plated at a concentration of 10,000 cells per well (100 µL medium) in a 96-well plate. The plate was then incubated at 37 °C and 5% CO2 for 24 h.
Cell transfection: Fresh phenol red-free DMEM medium was taken in a sterile environment, and the previously extracted pFXR-Binding plasmid and PG4.35[luc2P-9XGA4UAS-Hygro] plasmid were added. The mixture was stirred and allowed to stand at 23 °C for 3 min. Then, a 3% amount of transfection reagent was added to the mixture, and it was allowed to stand at 23 °C for 15 min. The mixture was then added to the 96-well plate at a volume of 10 µL per well and incubated at 37 °C in a 5% CO2 environment for 24 h.
The OA derivatives were prepared as 10 mM DMSO stock solutions and further diluted in a concentration gradient, with 10 µL added to each well. The final concentrations of the derivatives ranged from 10 µM to 0.03 µM, with 7 concentration gradients using […] dilution. The test was set with 3 duplicated wells.
Antagonism activity test: The firefly-Renilla Dual Fluorescence Assay Kit (Promega, #E2940, Madison, WI, USA) was used to measure the antagonism activity of the OA derivatives. Firstly, the firefly fluorescence reagent was added to the 96-well plate at a volume of 70 µL per well and shaken in darkness for 15 min. Then, the fluorescence intensity was measured at a wavelength of 645 ± 30 nm in a microplate reader (BioTek, Winooski, VT, USA). Next, the volume of Renilla reagent was added to the 96-well plate at a volume of 70 µL per well and shaken in darkness for 15 min. The fluorescence intensity was then measured at a wavelength of 525 ± 20 nm.
Data processing: The fluorescence data of firefly were divided by the fluorescence data of Renilla to remove errors, and the antagonism efficiency was calculated using the following formula: antagonism efficiency (%) = [1 − (FCompds. − FDMSO)/(FCDCA − FDMSO)] × 100%. In the formula, F represents fluorescence intensity. The antagonistic efficiency data were obtained as a concentration–effect curve using Graphpad Prism 8.0 software, and the corresponding IC50 value was calculated.

[5] = set-up: method as in PMID 34970143; settings: 120 mg·Kg^−1; cited from earlier work
[6] = system: LX-2 cells; assay: mRNA expression of liver fibrosis marker genes in TGFβ1-induced LX-2 cells; assay type: cell-based; settings: 10 μM, induced by 2 ng·mL^−1 TGFβ1, 24 h
Protocol: as §1
(A–E) The LX-2 cells underwent a 24 h treatment of 2 ng·mL^−1 TGFβ1, with or without varying concentrations of candidate compounds, following FBS starvation. […] GAPDH/GAPDH was used as the loading control. The mean ± SD values were obtained from three independent assays. […] ANOVA was followed by Tukey’s test for statistical analysis.

[7] = system: RXRα, RXRβ, RXRγ, LXRα, LXRβ, PXR, PPARα, PPARβ, PPARγ, and GPBAR; assay: NR selectivity one-hybrid assay in HEK-293T cells (panel of metabolic NRs); assay type: cell-based; settings: with corresponding agonists
Protocol: To assess the compound’s specificity, the mammalian one-hybrid assay was conducted. In this assay, HEK-293T cells were co-transfected with a fusion plasmid of Gal4 DBD-NR LBD (comprising RXRα, RXRβ, RXRγ, PPARα, PPARβ, PPARγ, LXRα, LXRβ, GPBAR, and PXR) and the UAS-TK-Luc reporter, followed by treatment with various concentrations of the compound. The positive control consisted of the corresponding nuclear receptor agonist, and the concentration used in the experiment was set to the EC50 of the agonist.
Figure 3 Compound 10b selectively antagonized FXR. The impact of compound 10b on various NRs was evaluated using a […] one-hybrid assay in HEK-293T cells. The cells were transiently co-transfected with a fusion plasmid of Gal4 DBD-NR-LBD, which included PPARα, PPARβ, PPARγ, RXRα, RXRβ, RXRγ, LXRα, LXRβ, GPBAR, PXR, and FXR, in combination with the UAS-TK-Luc reporter. […] The values are expressed as the means ± SE of three independent experiments. *: p < 0.05 vs. RA (relative agonist).

## C=C(C)[C@@H]1CC[C@]2(C(=O)O)CC[C@]3(C)[C@H](CC[C@@H]4[C@@]5(C)CC[C@H](O)C(C)(C)[C@@H]5CC[C@]43C)[C@@H]12 [BA, Betulinic acid]
[1]
  liver TC levels: reduce
  liver TG levels: reduce

## C[C@H](CCC(=O)O)[C@H]1CC[C@H]2[C@@H]3[C@H](O)C[C@@H]4C[C@H](O)CC[C@]4(C)[C@H]3CC[C@]12C [CDCA, Chenodeoxycholic acid, reference compound]
[2]
  expression of CYP7A1 (mRNA): decrease

## CC(=O)CCCC(=O)OC1CC2C3(C)CCC(O)C(C)(C)C3CCC2(C)C2(C)CCC3(C(=O)O)CCC(C)(C)CC3C12 (stereo not drawn) [Compound 7]
[3]
  CYP7A1 gene expression: downregulated; also recorded: significantly reduces
  G6Pase expression: significantly reduces
  PEPCK expression: significantly reduces

## CCC(C)OC(=O)C(CCC(=O)OC1CC2C3(C)CCC(O)C(C)(C)C3CCC2(C)C2(C)CCC3(C(=O)O)CCC(C)(C)CC3C12)NC(=O)OC(C)(C)C [Compound 20f, 3β-hydroxy-12β-(4′-((tert-butoxycarbonyl)amide)-5′-(sec-butoxy)-L-glutamate)oxy-13H-olean-28-oic acid]
[4]
  IC50: 1010 ± 180 nM

## CC1(C)CCC2(C(=O)O)CCC3(C)C(C(OC(=O)CCC(NC(=O)OC(C)(C)C)C(=O)OC4CCCC4)CC4C5(C)CCC(O)C(C)(C)C5CCC43C)C2C1 [Compound 20g, 3β-hydroxy-12β-(4′-((tert-butoxycarbonyl)amide)-5′-cyclopentyloxy-L-glutamate)oxy-13H-olean-28-oic acid]
[4]
  IC50: 820 ± 110 nM

## C[C@@H]1CC[C@]2(C(=O)O[C@@H]3O[C@H](CO)[C@@H](O)[C@H](O)[C@H]3O)CC[C@]3(C)C(=CC[C@@H]4[C@@]5(C)CC[C@H](O)[C@](C)(C(=O)O)[C@@H]5CC[C@]43C)[C@@H]2[C@]1(C)O [IsA, Ilexsaponin A1]
[5]
  liver TC levels: reducing
  liver TG: reducing
  serum TG: reducing

## CC[C@H]1[C@@H](O)[C@@H]2[C@H](CC[C@]3(C)[C@@H]([C@H](C)CCC(=O)O)CC[C@@H]23)[C@@]2(C)CC[C@@H](O)C[C@@H]12 [OCA, obeticholic acid, reference compound]
[6]
  mRNA expression of CTGF: decreased

## C/C=C1\C(=O)C[C@H]2[C@@H]3CCC4=CC(=O)CC[C@]4(C)[C@H]3CC[C@]12C [guggulsterone, reference compound]
[7]
  antagonism of metabolic NRs: Most NRs were antagonized
[6]
  mRNA expression of ACTA2: significantly decreased
  mRNA expression of COL1A1: significantly decreased
